Experimental findings from ChEMBL document CHEMBL1136730, “Antiestrogens and selective estrogen receptor modulators as multifunctional medicines. 2. Clinical considerations and new agents” (J Med Chem, 2003) are described below.

In one series the target is T1, Estrogen receptor (Homo sapiens, UniProt P03372).
T1 sequence (P03372 whole entry): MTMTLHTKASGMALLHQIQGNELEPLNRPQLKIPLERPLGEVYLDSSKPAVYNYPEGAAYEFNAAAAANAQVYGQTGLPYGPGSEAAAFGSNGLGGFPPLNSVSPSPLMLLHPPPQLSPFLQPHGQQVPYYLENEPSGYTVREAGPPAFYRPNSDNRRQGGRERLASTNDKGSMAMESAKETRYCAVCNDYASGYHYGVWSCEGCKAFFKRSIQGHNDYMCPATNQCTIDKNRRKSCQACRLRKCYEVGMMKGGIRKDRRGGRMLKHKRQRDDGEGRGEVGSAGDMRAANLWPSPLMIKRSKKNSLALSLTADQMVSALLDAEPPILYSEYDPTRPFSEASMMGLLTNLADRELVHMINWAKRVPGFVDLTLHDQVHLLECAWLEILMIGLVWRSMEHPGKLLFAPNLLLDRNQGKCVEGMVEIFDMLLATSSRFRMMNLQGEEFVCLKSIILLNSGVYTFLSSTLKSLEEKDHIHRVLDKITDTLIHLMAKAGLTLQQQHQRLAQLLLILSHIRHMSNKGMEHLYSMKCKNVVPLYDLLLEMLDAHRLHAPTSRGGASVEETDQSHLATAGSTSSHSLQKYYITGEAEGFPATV
The series can be described thus: Binding affinity for Estrogen receptor alpha.

Another series relates to Rattus norvegicus. Nature of the series: Effect on stimulation of immature rat uterus in dose limit of 0.1 and 10 mg/kg; No effect but lowers circulating cholesterol. It is filed as functional, organism-based. Also on record: dose 10 mg/kg.
Series [1] in a line: Effect on bone density of totalhip was determined in postmenopausal women. It is filed as functional, Homo sapiens, Bone element.
Series [2] is filed under the species Homo sapiens. The series can be described thus: Effect on bone density in the lumber spine was determined in postmenopausal women. It is filed as functional.
The species named for series [3] is Homo sapiens. Nature of the series: Effect on spine fractures in postmenopausal women with osteoporosis. The class given is functional.

Activity calls are given as the source filed them. No cut-off for these calls is given here.

For the compound `Oc1ccc2c(c1)CN(c1ccc(OCCN3CCCCC3)cc1)c1c-2ccc2cc(O)ccc12`, on Estrogen receptor, the affinity corresponds to a Ki of 0.28 nM. Moreover, in the series on Rattus norvegicus, the Effect entry is “inactive”.
With `O=C(c1ccc(OCCN2CCCCC2)cc1)c1c(-c2ccc(O)cc2)sc2cc(O)ccc12` [RALOXIFENE], the Increase (in series [1]; in the series filed under Homo sapiens [2]) was 2.4% throughout. The compound further yielded a Decrease in the series listed under Homo sapiens [3] of 40%. In addition, the bioavailability in the series “in vivo” was 2%.
